Key:
[1] = DRUGMATRIX: Atrial Natriuretic Factor (ANF) radioligand binding (ligand: [125I] ANF (rat)); assay type: cell membranes, Cavia porcellus, Dunkin-Hartley, Adrenal gland, Membrane; details: Not Active = under 50% inhibition at 10 µM
[2] = DRUGMATRIX: beta-Lactamase enzyme inhibition (substrate: Nitrocefin); set-up: species or system Bacillus cereus; details: Not Active = under 50% inhibition at 10 µM
[3] = DRUGMATRIX: Calcium Channel Type L, Benzothiazepine radioligand binding (ligand: [3H] Diltiazem); assay type: cell membranes, Rattus norvegicus, Wistar, Brain, Membrane; details: Not Active = under 50% inhibition at 10 µM
Thromboxane-A synthase = molecular target: T1, Thromboxane-A synthase (Homo sapiens, UniProt P24557); test: biochemical; assay type: tissue-based, Platelet; details: platelet;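 further: enzyme inhibition assay with PGH2 supplied as substrate; in other assays of this panel Not Active means under 50% inhibition at 10 µM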
T1 sequence (P24557 whole entry): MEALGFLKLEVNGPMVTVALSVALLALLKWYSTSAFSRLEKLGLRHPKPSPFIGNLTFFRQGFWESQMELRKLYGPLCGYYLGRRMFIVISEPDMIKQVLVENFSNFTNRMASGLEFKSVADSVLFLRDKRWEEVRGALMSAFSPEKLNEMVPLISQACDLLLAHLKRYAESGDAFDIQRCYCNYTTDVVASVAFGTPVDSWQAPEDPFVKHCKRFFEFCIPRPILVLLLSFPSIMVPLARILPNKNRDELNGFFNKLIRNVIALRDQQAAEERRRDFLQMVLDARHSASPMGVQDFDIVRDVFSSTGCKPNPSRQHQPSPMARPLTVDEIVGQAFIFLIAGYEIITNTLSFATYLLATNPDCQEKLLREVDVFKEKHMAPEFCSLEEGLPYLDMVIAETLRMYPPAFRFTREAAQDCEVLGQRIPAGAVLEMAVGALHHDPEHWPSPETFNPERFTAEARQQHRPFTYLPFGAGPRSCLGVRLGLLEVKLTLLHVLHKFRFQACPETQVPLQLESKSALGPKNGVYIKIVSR

[4] = molecular target: C-C chemokine receptor type 2 (Homo sapiens, UniProt P41597); assay type: cell membranes, CHO-K1, Membrane; details: cho-k1; further: in other assays of this panel Not Active means under 50% inhibition at 10 µM
Chain of C-C chemokine receptor type 2 (P41597 whole entry): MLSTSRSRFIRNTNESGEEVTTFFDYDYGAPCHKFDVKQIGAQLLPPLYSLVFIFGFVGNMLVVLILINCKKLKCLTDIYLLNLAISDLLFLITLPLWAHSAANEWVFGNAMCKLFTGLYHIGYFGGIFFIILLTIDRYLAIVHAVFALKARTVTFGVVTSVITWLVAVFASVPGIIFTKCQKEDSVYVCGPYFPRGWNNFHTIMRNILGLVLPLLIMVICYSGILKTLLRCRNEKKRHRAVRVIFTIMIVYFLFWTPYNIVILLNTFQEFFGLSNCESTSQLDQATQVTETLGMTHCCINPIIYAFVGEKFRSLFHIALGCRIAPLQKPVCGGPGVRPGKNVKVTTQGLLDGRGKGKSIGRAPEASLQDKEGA

[5] = DRUGMATRIX: GABAA, Flunitrazepam, Central radioligand binding (ligand: [3H] Flunitrazepam); assay type: cell membranes, Rattus norvegicus, Wistar, Brain, Membrane; details: Not Active = under 50% inhibition at 10 µM
[6] = DRUGMATRIX: Glutamate, Kainate radioligand binding (ligand: [3H] Kainic acid); assay type: cell membranes, Rattus norvegicus, Wistar, Brain, Membrane; details: Not Active = under 50% inhibition at 10 µM
[7] = DRUGMATRIX: Phorbol Ester radioligand binding (ligand: [3H] PDBu); assay type: cell membranes, Mus musculus, ICR, Brain, Membrane; details: Not Active = under 50% inhibition at 10 µM
Progesterone receptor = molecular target: T2, Progesterone receptor (Bos taurus, UniProt Q690N0); test: DRUGMATRIX: Progesterone radioligand binding (ligand: [3H] R-5020); assay type: tissue-based, Uterus; details: Not Active = under 50% inhibition at 10 µM
T2 sequence (Q690N0 whole entry): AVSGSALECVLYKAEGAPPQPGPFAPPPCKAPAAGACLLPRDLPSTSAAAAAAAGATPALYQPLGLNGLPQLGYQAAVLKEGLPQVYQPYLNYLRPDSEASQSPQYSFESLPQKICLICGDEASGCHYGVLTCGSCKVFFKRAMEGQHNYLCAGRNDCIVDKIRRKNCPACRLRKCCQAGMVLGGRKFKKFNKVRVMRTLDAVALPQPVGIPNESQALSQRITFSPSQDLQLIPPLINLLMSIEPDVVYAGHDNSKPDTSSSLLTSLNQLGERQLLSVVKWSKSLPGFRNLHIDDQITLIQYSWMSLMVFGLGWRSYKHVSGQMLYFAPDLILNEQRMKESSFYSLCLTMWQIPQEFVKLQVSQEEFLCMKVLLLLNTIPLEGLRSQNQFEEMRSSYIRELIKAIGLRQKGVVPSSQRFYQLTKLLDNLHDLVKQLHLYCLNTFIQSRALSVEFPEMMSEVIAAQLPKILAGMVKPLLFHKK

[8] = molecular target: T3, Angiotensin-converting enzyme (Oryctolagus cuniculus, UniProt P12822); test: biochemical; assay type: tissue-based, Lung;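 further: enzymatic inhibition of angiotensin-converting enzyme measured with FAPGG as the substrate; in other assays of this panel Not Active means under 50% inhibition at 10 µM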
T3 sequence (P12822 whole entry): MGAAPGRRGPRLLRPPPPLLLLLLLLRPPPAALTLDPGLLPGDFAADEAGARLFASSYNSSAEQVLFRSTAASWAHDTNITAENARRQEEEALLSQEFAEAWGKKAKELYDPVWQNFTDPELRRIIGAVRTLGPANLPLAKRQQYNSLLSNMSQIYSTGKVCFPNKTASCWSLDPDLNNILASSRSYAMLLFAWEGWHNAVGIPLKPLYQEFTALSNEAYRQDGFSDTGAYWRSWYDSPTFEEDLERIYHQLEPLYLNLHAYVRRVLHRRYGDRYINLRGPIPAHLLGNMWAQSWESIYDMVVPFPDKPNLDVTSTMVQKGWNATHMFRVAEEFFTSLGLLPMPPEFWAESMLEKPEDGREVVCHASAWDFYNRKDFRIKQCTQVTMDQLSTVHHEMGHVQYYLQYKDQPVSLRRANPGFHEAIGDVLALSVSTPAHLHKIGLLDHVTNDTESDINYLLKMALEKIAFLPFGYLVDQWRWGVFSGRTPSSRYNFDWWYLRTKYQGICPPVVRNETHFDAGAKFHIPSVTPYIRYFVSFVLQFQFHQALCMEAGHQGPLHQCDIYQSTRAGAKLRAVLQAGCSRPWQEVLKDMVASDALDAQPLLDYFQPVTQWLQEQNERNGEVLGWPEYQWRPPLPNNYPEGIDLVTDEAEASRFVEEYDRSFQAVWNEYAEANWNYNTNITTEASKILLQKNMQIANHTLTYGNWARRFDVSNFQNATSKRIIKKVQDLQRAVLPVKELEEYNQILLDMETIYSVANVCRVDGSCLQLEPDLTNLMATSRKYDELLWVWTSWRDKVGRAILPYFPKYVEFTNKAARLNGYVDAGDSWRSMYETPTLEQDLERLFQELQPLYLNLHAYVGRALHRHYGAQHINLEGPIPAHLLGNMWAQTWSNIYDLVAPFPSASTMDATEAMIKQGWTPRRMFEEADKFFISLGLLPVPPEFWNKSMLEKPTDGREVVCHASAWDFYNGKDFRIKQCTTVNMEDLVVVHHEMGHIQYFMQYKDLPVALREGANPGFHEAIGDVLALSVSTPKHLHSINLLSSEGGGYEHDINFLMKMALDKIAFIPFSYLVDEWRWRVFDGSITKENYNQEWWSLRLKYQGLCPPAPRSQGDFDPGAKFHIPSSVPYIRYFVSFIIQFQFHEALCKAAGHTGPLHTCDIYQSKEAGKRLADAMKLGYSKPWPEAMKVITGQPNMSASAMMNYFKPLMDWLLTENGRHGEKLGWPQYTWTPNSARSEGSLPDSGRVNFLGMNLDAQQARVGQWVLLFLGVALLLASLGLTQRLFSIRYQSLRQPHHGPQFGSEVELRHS

IVERMECTIN
Not Active: IC50 [1] | Ki [1] | IC50 [2] | Ki [2] | IC50 [3] | Ki [3] | IC50 (Thromboxane-A synthase) | Ki (Thromboxane-A synthase) | IC50 [4] | Ki [4] | IC50 [5] | Ki [5] | IC50 [6] | Ki [6] | IC50 [7] | Ki [7] | IC50 (Progesterone receptor) | Ki (Progesterone receptor) | IC50 [8] | Ki [8]

From ChEMBL document CHEMBL1909046, “DrugMatrix in vitro pharmacology data”
